Source: patent US20040044304A1, “Local drug delivery using photosensitizer-mediated and electromagnetic radiation enhanced vascular permeability” (priority 2002, published 2004)

Tested on: blood vessels within the dorsal window chamber
Type: in vivo, Syrian golden hamsters
Settings: 150 kD FITC-Dextran conjugate; fluorescence microscopy
Text: Syrian golden hamsters (Charles River Laboratories, Kingston, N.Y.) weighing between 60-70 gram were surgically implanted with titanium back-pack window chambers as described ([…] et al., 1980; Colantuoni et al., 1984; […] et al., 1994). Prior to the surgical procedure, the dorsal surface of the mouse was shaved with electric clippers (Sunbeam Oster 2-Speed, 150 Cadillac Lane, McMinnville, Tenn., 37110) and then the shaved skin covered in a depilatory cream (Nair, Carter Products, New York, N.Y., 10105) for 10 minutes to remove the remaining hair. A dorsal skin fold consisting of two layers of skin and muscle tissue was then sandwiched between two opposing titanium frames (Campus Research Machine Shop, University of California, San Diego 9500 Gilman Drive, La Jolla, Calif.) with a 15 mm circular opening in each. Layers of skin and muscle fascia were separated from the sub-cutaneous tissue, and removed until a thin monolayer of muscle and one layer of intact skin remained. A coverglass (Type Circle 1, Part #12-545-80 sourced from Fisher Scientific, 2761 Walnut Avenue, Tustin, Calif., 92780) held by an expansion ring in the circular window of one titanium frame was then placed on the exposed tissue to allow direct microscopic visualization of the vasculature. The window in the second opposing titanium frame was left open exposing the intact skin. Two days following the implantation of the titanium chamber, an in-dwelling PE10 catheter (VVR Scientific, Westchester, Pa.) was implanted in the carotid artery. The catheter tubing was passed sub-cutaneously from the ventral to the dorsal side of the neck, and exteriorized through the skin at the base of the chamber. The patency of the catheter was ensured by daily flushing of the in-dwelling implanted tip with 0.005-0.01 ml of heparinized saline (40 IU/ml). The heparin was sourced from Upjohn Co., 100 Route […], Prepack, N.J., 07977, and the saline from Abbott Laboratories, North Chicago, Ill., 60064. Microvascular observations using an intra-vital microscope were not undertaken until at least 4 days post-chamber implantation to mitigate against post-surgical trauma, and to confirm that blood vessels within the chamber were functioning and intact and patent. A chamber was considered suitable for subsequent studies if microscopic examination of the preparation met the following criteria (as applied in […] et al., 1994): The intra-vital microscopic studies were undertaken on un-sedated animals held in a Plexiglass tube (Campus Research Machine Shop, University of California, San Diego 9500 Gilman Drive, La Jolla, Calif.) from which the window chamber sandwich protruded horizontally, allowing visualization of the chamber on the microscope stage. The Plexiglass tube acted to restrain the animals without impeding respiration. The intra-vital microscopy was performed using a Leitz Ortholux II (McBain Instruments, Inc., 9601 […] Avenue, Chatsworth, Calif., 91311) fitted with a Leitz Wetzlar 25× saline immersion objective lens, 0.6 numerical aperture (McBain Instruments, Inc., 9601 […] Avenue, Chatsworth, Calif., 91311), a Leitz Wetzlar 10× dry Planfluotar lens, 0.3 numerical aperture (McBain Instruments, Inc., 9601 […] Avenue, Chatsworth, Calif., 91311) and a Leitz Wetzlar 4× EF dry lens, 0.12 numerical aperture (McBain Instruments, Inc., 9601 […] Avenue, Chatsworth, Calif., 91311). A 100 Watt Hg light source (Olympus Corporation, 2 Corporate Center Drive, Melville, N.Y., 11747-3157) was used for both trans- and epi-illumination. For the trans-illumination studies the light was filtered using a 420 nm blue filter which selectively passed light in the region of the maximum absorbance band of hemoglobin, causing the red blood cells to appear as dark objects against a gray background. In addition, a heat filter was placed in the light path prior to the condenser to prevent hyperthermic effects on the tissue being examined.

## fluorescein diisothiocyanate dextran [FITC-Dextran, reference compound]
  Retention of the molecule in the treated tissue field following PhotoPoint-induced release from the vasculature: at least 48 hrs
